In PubChem BioAssay (NCI) one finds TGI and GI50 data, which are given here for eleven compounds.

The structures appear in SMILES notation. Values joined by “and” are separate entries in the source; they are usually repeats but may differ in a detail not shown here. Identical values can stand only once.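 Method: 48-hour compound exposure of cells in 96-well plates, five concentrations, linear interpolation of endpoints. Abbreviation: GI50, concentration required for 50% inhibition of growth. TGI: total growth inhibition.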 Where a SMILES comes first, the peptide text is derived from it. [ ]: non-standard residue; d: D form. The star is where a group is joined. ξ: configuration not given here. ξF = NC(Cc1ccccc1)C(=O)O; Cbz = O=C(OCc1ccccc1)* A value given as a limit tells only on which side of the number the result lay.

One experiment has as its system A498 renal. Briefly: NCI anticancer screen, dose series, 48 h.
Compound `CCN1CCC(O)(c2ccc([N+](=O)[O-])cc2)C(C(=O)c2ccc([N+](=O)[O-])cc2)C1` (stereo not drawn) yielded a TGI of 46.2 µM.
On the same count and under the same terms, the same measure for `CCOC(=O)CNC(=O)C(Cc1ccccc1)NC(=O)OCc1ccccc1` (stereo not drawn) (Cbz-[ξF]-Gly-OEt): above 100 µM; for `S=C1Cc2c(-c3ccccc3)cc(-c3cccc(Cl)c3)nc2-c2ccccc2N1`: 10.4 µM; for `N#Cc1c(NC(=O)C(F)(F)F)sc2c3c(=O)c4ccccc4c(=O)c=3oc3ccccc3c12`: above 72.3 µM.
The same measure, in the same setting: the figure for `Cc1c(C)c2c(c(N)c1C#N)C(=O)N(Cc1ccc(S(N)(=O)=O)cc1)C2=O` is above 70.6 µM; for `O=C(NCCN(CCNC(=O)c1cccc(O)c1O)CCNC(=O)c1cccc(O)c1O)c1cccc(O)c1O` it is above 100 µM; for `COC(=O)/C=C(\C(=O)OC)c1cc(C)c2cc(C(C)C)ccc(C)c1-2` it is above 100 µM.
Same read-out and setting: the figure for `C[C@@H](CC(=O)OCc1ccccc1)OC1OC(COC(=O)C(C)(C)C)C(OC(=O)C(C)(C)C)C(OC(=O)C(C)(C)C)C1OC(=O)C(C)(C)C` (stereo partly drawn) is above 100 µM; for `Cc1ccc(OCC2OC(n3cnc4c(Cl)nc(Nc5cc(Cl)cc(Cl)c5)nc43)CC2Oc2ccc(C)cc2)cc1` (stereo not drawn) it is above 100 µM; for `O=[N+]([O-])c1cccc2nc3ccccc3c(NCCCCCNc3c4ccccc4nc4cccc([N+](=O)[O-])c34)c12` it is 0.248 µM.
In turn, `COc1ccccc1C1c2cc3c(cc2OC2(OC)COC(=O)C12)OCO3` (stereo not drawn) had a TGI of 54.4 µM.

The next experiment relates to BT-549 breast. Put plainly: NCI anticancer screen, dose series, 48 h.
For `CCN1CCC(O)(c2ccc([N+](=O)[O-])cc2)C(C(=O)c2ccc([N+](=O)[O-])cc2)C1` (stereo not drawn), the TGI was found to be 30.8 µM.
Same read-out and setting: the same measure for `CCOC(=O)CNC(=O)C(Cc1ccccc1)NC(=O)OCc1ccccc1` (stereo not drawn) (Cbz-[ξF]-Gly-OEt): above 100 µM; for `S=C1Cc2c(-c3ccccc3)cc(-c3cccc(Cl)c3)nc2-c2ccccc2N1`: 19.5 µM.
Regarding `N#Cc1c(NC(=O)C(F)(F)F)sc2c3c(=O)c4ccccc4c(=O)c=3oc3ccccc3c12`, the TGI turned out to be 53.3 µM.
Same read-out and setting: the same measure for `Cc1c(C)c2c(c(N)c1C#N)C(=O)N(Cc1ccc(S(N)(=O)=O)cc1)C2=O`: above 100 µM; for `O=C(NCCN(CCNC(=O)c1cccc(O)c1O)CCNC(=O)c1cccc(O)c1O)c1cccc(O)c1O`: above 100 µM; for `COC(=O)/C=C(\C(=O)OC)c1cc(C)c2cc(C(C)C)ccc(C)c1-2`: above 100 µM.
On the same count and under the same terms, the figure for `C[C@@H](CC(=O)OCc1ccccc1)OC1OC(COC(=O)C(C)(C)C)C(OC(=O)C(C)(C)C)C(OC(=O)C(C)(C)C)C1OC(=O)C(C)(C)C` (stereo partly drawn) is above 100 µM; for `Cc1ccc(OCC2OC(n3cnc4c(Cl)nc(Nc5cc(Cl)cc(Cl)c5)nc43)CC2Oc2ccc(C)cc2)cc1` (stereo not drawn) it is above 100 µM.
As for `O=[N+]([O-])c1cccc2nc3ccccc3c(NCCCCCNc3c4ccccc4nc4cccc([N+](=O)[O-])c34)c12`, the GI50 was 183 nM; the TGI was 0.39 µM and 1.02 µM.
`COc1ccccc1C1c2cc3c(cc2OC2(OC)COC(=O)C12)OCO3` (stereo not drawn) displayed a TGI above 100 µM.

For the next experiment, the system named is COLO 205 colon. Put plainly: NCI anticancer screen, dose series, 48 h.
The compound `CCN1CCC(O)(c2ccc([N+](=O)[O-])cc2)C(C(=O)c2ccc([N+](=O)[O-])cc2)C1` (stereo not drawn) came in with a TGI of 28.1 µM.
For `CCOC(=O)CNC(=O)C(Cc1ccccc1)NC(=O)OCc1ccccc1` (stereo not drawn) (Cbz-[ξF]-Gly-OEt), the TGI was above 100 µM.
Compound `S=C1Cc2c(-c3ccccc3)cc(-c3cccc(Cl)c3)nc2-c2ccccc2N1` came in with a TGI above 100 µM.
Same read-out and setting: the same measure for `N#Cc1c(NC(=O)C(F)(F)F)sc2c3c(=O)c4ccccc4c(=O)c=3oc3ccccc3c12`: 32.8 µM; for `Cc1c(C)c2c(c(N)c1C#N)C(=O)N(Cc1ccc(S(N)(=O)=O)cc1)C2=O`: above 100 µM; for `O=C(NCCN(CCNC(=O)c1cccc(O)c1O)CCNC(=O)c1cccc(O)c1O)c1cccc(O)c1O`: above 100 µM.
On the same count and under the same terms, the same measure for `COC(=O)/C=C(\C(=O)OC)c1cc(C)c2cc(C(C)C)ccc(C)c1-2`: above 100 µM; for `C[C@@H](CC(=O)OCc1ccccc1)OC1OC(COC(=O)C(C)(C)C)C(OC(=O)C(C)(C)C)C(OC(=O)C(C)(C)C)C1OC(=O)C(C)(C)C` (stereo partly drawn): above 100 µM.
The compound `Cc1ccc(OCC2OC(n3cnc4c(Cl)nc(Nc5cc(Cl)cc(Cl)c5)nc43)CC2Oc2ccc(C)cc2)cc1` (stereo not drawn) came in with a TGI above 100 µM.
Consider `O=[N+]([O-])c1cccc2nc3ccccc3c(NCCCCCNc3c4ccccc4nc4cccc([N+](=O)[O-])c34)c12`, for which the TGI is 0.13 µM and 0.0322 µM.
The compound `COc1ccccc1C1c2cc3c(cc2OC2(OC)COC(=O)C12)OCO3` (stereo not drawn) displayed a TGI of 67.3 µM.

The next experiment concerns EKVX NSCLC. Put plainly: NCI anticancer screen, dose series, 48 h.
`CCN1CCC(O)(c2ccc([N+](=O)[O-])cc2)C(C(=O)c2ccc([N+](=O)[O-])cc2)C1` (stereo not drawn) yielded a TGI of 37.6 µM.
Still for that read-out and setting: the same measure for `CCOC(=O)CNC(=O)C(Cc1ccccc1)NC(=O)OCc1ccccc1` (stereo not drawn) (Cbz-[ξF]-Gly-OEt): above 100 µM; for `S=C1Cc2c(-c3ccccc3)cc(-c3cccc(Cl)c3)nc2-c2ccccc2N1`: 24.4 µM; for `N#Cc1c(NC(=O)C(F)(F)F)sc2c3c(=O)c4ccccc4c(=O)c=3oc3ccccc3c12`: 65.4 µM.
`Cc1c(C)c2c(c(N)c1C#N)C(=O)N(Cc1ccc(S(N)(=O)=O)cc1)C2=O` gave a TGI above 100 µM.
Compound `O=C(NCCN(CCNC(=O)c1cccc(O)c1O)CCNC(=O)c1cccc(O)c1O)c1cccc(O)c1O` yielded a TGI above 100 µM.
As for `COC(=O)/C=C(\C(=O)OC)c1cc(C)c2cc(C(C)C)ccc(C)c1-2`, the TGI is above 100 µM.
In turn, `C[C@@H](CC(=O)OCc1ccccc1)OC1OC(COC(=O)C(C)(C)C)C(OC(=O)C(C)(C)C)C(OC(=O)C(C)(C)C)C1OC(=O)C(C)(C)C` (stereo partly drawn) gave a TGI above 100 µM.
Same read-out and setting: the same measure for `Cc1ccc(OCC2OC(n3cnc4c(Cl)nc(Nc5cc(Cl)cc(Cl)c5)nc43)CC2Oc2ccc(C)cc2)cc1` (stereo not drawn): above 100 µM.
On to `O=[N+]([O-])c1cccc2nc3ccccc3c(NCCCCCNc3c4ccccc4nc4cccc([N+](=O)[O-])c34)c12`, for which the GI50 was 34.6 nM; the TGI is 0.353 µM and 1.25 µM.
`COc1ccccc1C1c2cc3c(cc2OC2(OC)COC(=O)C12)OCO3` (stereo not drawn) yielded a TGI above 82.3 µM.

The test system of another experiment is HL-60(TB) leukemia. Briefly: NCI anticancer screen, dose series, 48 h.
In turn, `CCN1CCC(O)(c2ccc([N+](=O)[O-])cc2)C(C(=O)c2ccc([N+](=O)[O-])cc2)C1` (stereo not drawn) came in with a TGI above 100 µM.
For `CCOC(=O)CNC(=O)C(Cc1ccccc1)NC(=O)OCc1ccccc1` (stereo not drawn) (Cbz-[ξF]-Gly-OEt), the TGI is above 100 µM.
Compound `S=C1Cc2c(-c3ccccc3)cc(-c3cccc(Cl)c3)nc2-c2ccccc2N1` showed a TGI of 54.9 µM.
On the same count and under the same terms, the figure for `N#Cc1c(NC(=O)C(F)(F)F)sc2c3c(=O)c4ccccc4c(=O)c=3oc3ccccc3c12` is 24.6 µM; for `Cc1c(C)c2c(c(N)c1C#N)C(=O)N(Cc1ccc(S(N)(=O)=O)cc1)C2=O` it is above 100 µM.
On the same count and under the same terms, the same measure for `O=C(NCCN(CCNC(=O)c1cccc(O)c1O)CCNC(=O)c1cccc(O)c1O)c1cccc(O)c1O`: above 100 µM; for `COC(=O)/C=C(\C(=O)OC)c1cc(C)c2cc(C(C)C)ccc(C)c1-2`: above 100 µM.
Still for that read-out and setting: the same measure for `C[C@@H](CC(=O)OCc1ccccc1)OC1OC(COC(=O)C(C)(C)C)C(OC(=O)C(C)(C)C)C(OC(=O)C(C)(C)C)C1OC(=O)C(C)(C)C` (stereo partly drawn): above 100 µM; for `Cc1ccc(OCC2OC(n3cnc4c(Cl)nc(Nc5cc(Cl)cc(Cl)c5)nc43)CC2Oc2ccc(C)cc2)cc1` (stereo not drawn): above 100 µM.
Consider `O=[N+]([O-])c1cccc2nc3ccccc3c(NCCCCCNc3c4ccccc4nc4cccc([N+](=O)[O-])c34)c12`, for which the TGI worked out at 0.0429 µM.
On the same count and under the same terms, the figure for `COc1ccccc1C1c2cc3c(cc2OC2(OC)COC(=O)C12)OCO3` (stereo not drawn) is 18.5 µM.

The subject of a further experiment is MALME-3M melanoma. Put plainly: NCI anticancer screen, dose series, 48 h.
For the compound `CCN1CCC(O)(c2ccc([N+](=O)[O-])cc2)C(C(=O)c2ccc([N+](=O)[O-])cc2)C1` (stereo not drawn), the TGI stood at 48.6 µM.
The same measure, in the same setting: the same measure for `CCOC(=O)CNC(=O)C(Cc1ccccc1)NC(=O)OCc1ccccc1` (stereo not drawn) (Cbz-[ξF]-Gly-OEt): above 100 µM; for `S=C1Cc2c(-c3ccccc3)cc(-c3cccc(Cl)c3)nc2-c2ccccc2N1`: above 24.5 µM.
Still for that read-out and setting: the figure for `N#Cc1c(NC(=O)C(F)(F)F)sc2c3c(=O)c4ccccc4c(=O)c=3oc3ccccc3c12` is 13.1 µM; for `Cc1c(C)c2c(c(N)c1C#N)C(=O)N(Cc1ccc(S(N)(=O)=O)cc1)C2=O` it is above 100 µM.
As for `O=C(NCCN(CCNC(=O)c1cccc(O)c1O)CCNC(=O)c1cccc(O)c1O)c1cccc(O)c1O`, the TGI was above 52.5 µM.
Regarding `COC(=O)/C=C(\C(=O)OC)c1cc(C)c2cc(C(C)C)ccc(C)c1-2`, the TGI was above 100 µM.
In the case of `C[C@@H](CC(=O)OCc1ccccc1)OC1OC(COC(=O)C(C)(C)C)C(OC(=O)C(C)(C)C)C(OC(=O)C(C)(C)C)C1OC(=O)C(C)(C)C` (stereo partly drawn), the TGI was above 100 µM.
Still for that read-out and setting: the figure for `Cc1ccc(OCC2OC(n3cnc4c(Cl)nc(Nc5cc(Cl)cc(Cl)c5)nc43)CC2Oc2ccc(C)cc2)cc1` (stereo not drawn) is above 100 µM; for `O=[N+]([O-])c1cccc2nc3ccccc3c(NCCCCCNc3c4ccccc4nc4cccc([N+](=O)[O-])c34)c12` it is 0.16 µM.
The same measure, in the same setting: the same measure for `COc1ccccc1C1c2cc3c(cc2OC2(OC)COC(=O)C12)OCO3` (stereo not drawn): above 100 µM.
